# Reference: patent US5393869A, “Parathyroid hormone derivatives” (Takeda Chemical Industries, Ltd., priority 1990, dated 1995)
# Starred links: 1 amine or outer side, 2 acyl side, 3 side chain; linkers in the order of their positions; H or OH if unused. Non-standard residues stand in square brackets, D forms with d. Residues, ends and D or L forms follow the SMILES beside them. X1 = O=C([C@H](Cc1c(C2SCCS2)[nH]c2ccccc12)N[*:1])[*:2]
# Molecular target: T1, PTH receptor (Mus musculus, UniProt P41593)
# T1 construct: a mouse cranial bone-derived osteoblast-like cell strain, MC3T3-EI cells, cultivated on a 96-well multiplate; endogenous in cells; host or cells: MC3T3-E1 mouse osteoblast-like cells
# T1 sequence (P41593 27-591): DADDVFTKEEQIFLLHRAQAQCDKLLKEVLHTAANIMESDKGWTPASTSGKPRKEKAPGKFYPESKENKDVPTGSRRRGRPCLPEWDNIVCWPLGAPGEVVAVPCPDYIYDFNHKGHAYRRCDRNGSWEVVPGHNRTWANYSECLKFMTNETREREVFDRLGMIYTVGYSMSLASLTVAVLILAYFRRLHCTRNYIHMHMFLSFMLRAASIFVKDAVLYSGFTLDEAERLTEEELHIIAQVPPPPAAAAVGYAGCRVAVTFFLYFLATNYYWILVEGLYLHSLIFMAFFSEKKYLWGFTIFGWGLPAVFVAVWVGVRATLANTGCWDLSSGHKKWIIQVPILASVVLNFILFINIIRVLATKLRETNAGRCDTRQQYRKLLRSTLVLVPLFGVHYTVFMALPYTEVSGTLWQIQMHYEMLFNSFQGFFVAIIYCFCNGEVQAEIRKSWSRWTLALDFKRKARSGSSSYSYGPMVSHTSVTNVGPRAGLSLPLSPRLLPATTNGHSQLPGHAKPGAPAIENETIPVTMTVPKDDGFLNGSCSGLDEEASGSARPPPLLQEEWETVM
# Assay: cAMP production by PTH (1-34) analogues in MC3T3-EI osteoblast-like cells
# Format: cell-based
# Conditions: cAMP production, 0.01-100 nM analogue, room temperature 30 minutes, hPTH(1-34) = 1.00
# Experimental: The biological activity of the peptide analogues was evaluated by a modified version of the method reported by Shigeno et al. in The Journal of Biological Chemistry 263, 18369-18377 (1988). A culture solution (Hank's solution, containing 20 mM N-2-hydroxyethylpiperazine-N'-2-ethanesulfonic acid (HEPES), 0.1% bovine serum albumin and 0.5 mM isobutylmethyl-xanthine) containing 0.01, 0.1, 1, 10 or 100 nM analogue was added in an amount of 100 μto a mouse cranial bone-derived osteoblast-like cell strain, MC3T3-EI cells, cultivated on a 96-well multiplate (Nunclon, Nunc), followed by reaction at room temperature for 30 minutes. After addition of 100 μof 0.2N hydrochloric acid, the mixture was immersed in boiling water for 2.5 minutes, and cyclic adenosine monophosphate (cAMP) produced by a PTH receptor was extracted from the cells. The total cAMP in the culture solution and the cells was assayed using a commercial radioimmunoassay kit (cyclic AMP [^125 I] kit "Du Pont-Daiichi", Daiichi Kagaku Yakuhin).
row,SMILES,Biological Activity (Represented by Relative Activity to hPTH(1-34))
1,"CC[C@H](C)[C@H](NC(=O)[C@H](CCC(=O)O)NC(=O)[C@H](CO)NC(=O)[C@@H](NC(=O)[C@@H](N)CO)C(C)C)C(=O)N[C@@H](CCC(N)=O)C(=O)N[C@@H](CC(C)C)C(=O)N[C@@H](CCSC)C(=O)N[C@@H](Cc1c[nH]cn1)C(=O)N[C@@H](CC(N)=O)C(=O)N[C@@H](CC(C)C)C(=O)NCC(=O)N[C@@H](CCCCN)C(=O)N[C@@H](Cc1c[nH]cn1)C(=O)N[C@@H](CC(C)C)C(=O)N[C@@H](CC(N)=O)C(=O)N[C@@H](CO)C(=O)N[C@@H](CCSC)C(=O)N[C@@H](CCCNC(=N)N)C(=O)N[C@@H](CCCNC(=N)N)C(=O)N[C@@H](CCCNC(=N)N)C(=O)N[C@@H](CCC(=O)O)C(=O)N[C@@H](Cc1c(C2SCCS2)[nH]c2ccccc12)C(=O)N[C@@H](CC(C)C)C(=O)N[C@@H](CCCNC(=N)N)C(=O)N[C@@H](CCCCN)C(=O)N[C@@H](CCCCN)C(=O)N[C@@H](CC(C)C)C(=O)N[C@@H](CCC(N)=O)C(=O)N[C@@H](CC(=O)O)C(=O)N[C@H](C(=O)N[C@@H](Cc1c[nH]cn1)C(=O)N[C@@H](CC(N)=O)C(=O)N[C@@H](Cc1ccccc1)C(N)=O)C(C)C [(Arg^19,21,2-(1,3-dithiolan-2-yl)-Trp^23)hPTH(1-34)NH2] (H-SVSEIQLMHNLGKHLNSMRRRE[X1]LRKKLQDVHNF-NH2)",1.7
2,"CC[C@H](C)[C@H](NC(=O)[C@H](CCC(=O)O)NC(=O)[C@H](CO)NC(=O)[C@@H](NC(=O)C(C)(C)N)C(C)C)C(=O)N[C@@H](CCC(N)=O)C(=O)N[C@@H](CC(C)C)C(=O)N[C@@H](CCSC)C(=O)N[C@@H](Cc1c[nH]cn1)C(=O)N[C@@H](CC(N)=O)C(=O)N[C@@H](CC(C)C)C(=O)NCC(=O)N[C@@H](CCCCN)C(=O)N[C@@H](Cc1c[nH]cn1)C(=O)N[C@@H](CC(C)C)C(=O)N[C@@H](CC(N)=O)C(=O)N[C@@H](CO)C(=O)N[C@@H](CCSC)C(=O)N[C@@H](CCC(=O)O)C(=O)N[C@@H](CCCNC(=N)N)C(=O)N[C@H](C(=O)N[C@@H](CCC(=O)O)C(=O)N[C@@H](Cc1c[nH]c2ccccc12)C(=O)N[C@@H](CC(C)C)C(=O)N[C@@H](CCCNC(=N)N)C(=O)N[C@@H](CCCCN)C(=O)N[C@@H](CCCCN)C(=O)N[C@@H](CC(C)C)C(=O)N[C@@H](CCC(N)=O)C(=O)N[C@@H](CC(=O)O)C(=O)N[C@H](C(=O)N[C@@H](Cc1c[nH]cn1)C(=O)N[C@@H](CC(N)=O)C(=O)N[C@@H](Cc1ccccc1)C(=O)O)C(C)C)C(C)C [[Aib^1] hPTH (1-34), (Aib^1)hPTH(1-34)]",1.7
3,"CC[C@H](C)[C@H](NC(=O)[C@H](CCC(=O)O)NC(=O)[C@H](CO)NC(=O)[C@@H](NC(=O)[C@@H](N)CO)C(C)C)C(=O)N[C@@H](CCC(N)=O)C(=O)N[C@@H](CC(C)C)C(=O)N[C@@H](CCSC)C(=O)N[C@@H](Cc1c[nH]cn1)C(=O)N[C@@H](CC(N)=O)C(=O)N[C@@H](CC(C)C)C(=O)N[C@H](CC(C)C)C(=O)N[C@@H](CCCCN)C(=O)N[C@@H](Cc1c[nH]cn1)C(=O)N[C@@H](CC(C)C)C(=O)N[C@@H](CC(N)=O)C(=O)N[C@@H](CO)C(=O)N[C@@H](CCSC)C(=O)N[C@@H](CCC(=O)O)C(=O)N[C@@H](CCCNC(=N)N)C(=O)N[C@H](C(=O)N[C@@H](CCC(=O)O)C(=O)N[C@@H](Cc1c[nH]c2ccccc12)C(=O)N[C@@H](CC(C)C)C(=O)N[C@@H](CCCNC(=N)N)C(=O)N[C@@H](CCCCN)C(=O)N[C@@H](CCCCN)C(=O)N[C@@H](CC(C)C)C(=O)N[C@@H](CCC(N)=O)C(=O)N[C@@H](CC(=O)O)C(=O)N[C@H](C(=O)N[C@@H](Cc1c[nH]cn1)C(=O)N[C@@H](CC(N)=O)C(=O)N[C@@H](Cc1ccccc1)C(N)=O)C(C)C)C(C)C [[D-Leu^12] hPTH (1-34)NH2, (D-Leu^12)hPTH(1-34)NH2]",0.5
4,"CC[C@H](C)[C@H](NC(=O)[C@H](CCC(=O)O)NC(=O)[C@H](CO)NC(=O)[C@@H](NC(=O)[C@@H](N)CO)C(C)C)C(=O)N[C@@H](CCC(N)=O)C(=O)N[C@@H](CC(C)C)C(=O)N[C@@H](CCSC)C(=O)N[C@@H](Cc1c[nH]cn1)C(=O)N[C@@H](CC(N)=O)C(=O)N[C@@H](CC(C)C)C(=O)NCC(=O)N[C@@H](CCCCN)C(=O)N[C@@H](Cc1c[nH]cn1)C(=O)N[C@@H](CC(C)C)C(=O)N[C@@H](CC(N)=O)C(=O)N[C@@H](CO)C(=O)N[C@@H](CCSC)C(=O)N[C@@H](CCC(=O)O)C(=O)N[C@@H](CCCNC(=N)N)C(=O)N[C@H](C(=O)N[C@@H](CCC(=O)O)C(=O)N[C@@H](Cc1c[nH]c2ccccc12)C(=O)N[C@@H](CC(C)C)C(=O)N[C@@H](CCCNC(=N)N)C(=O)N[C@@H](CCCCN)C(=O)N[C@@H](CCC(N)=O)C(=O)N[C@@H](CC(C)C)C(=O)N[C@@H](CCC(N)=O)C(=O)N[C@@H](CC(=O)O)C(=O)N[C@H](C(=O)N[C@@H](Cc1c[nH]cn1)C(=O)N[C@@H](CC(N)=O)C(=O)N[C@@H](Cc1ccccc1)C(=O)O)C(C)C)C(C)C [[Gln^27] hPTH (1-34), (Gln^27)hPTH(1-34)]",2.5

# Next, values leading:
row,Biological Activity (Represented by Relative Activity to hPTH(1-34)),SMILES
1,0.9,CC[C@H](C)[C@H](NC(=O)[C@H](CCC(=O)O)NC(=O)[C@H](CO)NC(=O)[C@@H](NC(=O)[C@@H](N)CO)C(C)C)C(=O)N[C@@H](CCC(N)=O)C(=O)N[C@@H](CC(C)C)C(=O)N[C@@H](CCSC)C(=O)N[C@@H](Cc1c[nH]cn1)C(=O)N[C@@H](CC(N)=O)C(=O)N[C@@H](CC(C)C)C(=O)N[C@H](Cc1ccc2ccccc2c1)C(=O)N[C@@H](CCCCN)C(=O)N[C@@H](Cc1c[nH]cn1)C(=O)N[C@@H](CC(C)C)C(=O)N[C@@H](CC(N)=O)C(=O)N[C@@H](CO)C(=O)N[C@@H](CCSC)C(=O)N[C@@H](CCC(=O)O)C(=O)N[C@@H](CCCNC(=N)N)C(=O)N[C@H](C(=O)N[C@@H](CCC(=O)O)C(=O)N[C@@H](Cc1c[nH]c2ccccc12)C(=O)N[C@@H](CC(C)C)C(=O)N[C@@H](CCCNC(=N)N)C(=O)N[C@@H](CCCCN)C(=O)N[C@@H](CCCCN)C(=O)N[C@@H](CC(C)C)C(=O)N[C@@H](CCC(N)=O)C(=O)N[C@@H](CC(=O)O)C(=O)N[C@H](C(=O)N[C@@H](Cc1c[nH]cn1)C(=O)N[C@@H](CC(N)=O)C(=O)N[C@@H](Cc1ccccc1)C(N)=O)C(C)C)C(C)C [(3-(2-naphthyl)-D-Ala^12)hPTH(1-34)NH2]
2,1.7,CC[C@H](C)[C@H](NC(=O)[C@H](CCC(=O)O)NC(=O)[C@H](CO)NC(=O)[C@@H](NC(=O)[C@@H](N)CO)C(C)C)C(=O)N[C@@H](CCC(N)=O)C(=O)N[C@@H](CC(C)C)C(=O)N[C@@H](CCSC)C(=O)N[C@@H](Cc1c[nH]cn1)C(=O)N[C@@H](CC(N)=O)C(=O)N[C@@H](Cc1ccc2ccccc2c1)C(=O)NCC(=O)N[C@@H](CCCCN)C(=O)N[C@@H](Cc1c[nH]cn1)C(=O)N[C@@H](CC(C)C)C(=O)N[C@@H](CC(N)=O)C(=O)N[C@@H](CO)C(=O)N[C@@H](CCSC)C(=O)N[C@@H](CCC(=O)O)C(=O)N[C@@H](CCCNC(=N)N)C(=O)N[C@H](C(=O)N[C@@H](CCC(=O)O)C(=O)N[C@@H](Cc1c[nH]c2ccccc12)C(=O)N[C@@H](CC(C)C)C(=O)N[C@@H](CCCNC(=N)N)C(=O)N[C@@H](CCCCN)C(=O)N[C@@H](CCCCN)C(=O)N[C@@H](CC(C)C)C(=O)N[C@@H](CCC(N)=O)C(=O)N[C@@H](CC(=O)O)C(=O)N[C@H](C(=O)N[C@@H](Cc1c[nH]cn1)C(=O)N[C@@H](CC(N)=O)C(=O)N[C@@H](Cc1ccccc1)C(N)=O)C(C)C)C(C)C [[3-(2-naphthyl)-Ala^11] hPTH (1-34)NH2]
3,0.8,"CC[C@H](C)[C@H](NC(=O)[C@H](CCC(=O)O)NC(=O)[C@H](CO)NC(=O)[C@@H](NC(=O)[C@@H](N)CO)C(C)C)C(=O)N[C@@H](CCC(N)=O)C(=O)N[C@@H](CC(C)C)C(=O)N[C@@H](CCSC)C(=O)N[C@@H](Cc1c[nH]cn1)C(=O)N[C@@H](CC(N)=O)C(=O)N[C@@H](CC(C)C)C(=O)N[C@H](CO)C(=O)N[C@@H](CCCCN)C(=O)N[C@@H](Cc1c[nH]cn1)C(=O)N[C@@H](CC(C)C)C(=O)N[C@@H](CC(N)=O)C(=O)N[C@@H](CO)C(=O)N[C@@H](CCSC)C(=O)N[C@@H](CCC(=O)O)C(=O)N[C@@H](CCCNC(=N)N)C(=O)N[C@H](C(=O)N[C@@H](CCC(=O)O)C(=O)N[C@@H](Cc1c[nH]c2ccccc12)C(=O)N[C@@H](CC(C)C)C(=O)N[C@@H](CCCNC(=N)N)C(=O)N[C@@H](CCCCN)C(=O)N[C@@H](CCCCN)C(=O)N[C@@H](CC(C)C)C(=O)N[C@@H](CCC(N)=O)C(=O)N[C@@H](CC(=O)O)C(=O)N[C@H](C(=O)N[C@@H](Cc1c[nH]cn1)C(=O)N[C@@H](CC(N)=O)C(=O)N[C@@H](Cc1ccccc1)C(N)=O)C(C)C)C(C)C [[D-Ser^12] hPTH (1-34)NH2, (D-Ser^12)hPTH(1-34)NH2]"
